What all share (type): in vivo
One experiment has as its system Leptochloa chinensis. Nature of the experiment: Experiment on weeding effect in post-emergence stage. As to conditions: dose 15 g a.i./ha, fresh weight control rate level. The method in brief:
(§1)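 Herbicidal activity is judged on potted plants that receive a post-emergence spray at 500 to 15 g a.i./ha, with methyl oleate added as synergist. Effects are counted three weeks later in the greenhouse.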

The test system of a further experiment is Abutilon theophrasti. Described as above. The note with it: dose 15 g a.i./ha, fresh weight control rate level. The method, boiled down: as §1
Another experiment concerns Echinochloa crusgalli. Described as above. The note with it: dose 15 g a.i./ha, fresh weight control rate level. The method, boiled down:
as §1

The next experiment has as its system Eleusine indica. Described as above. As to conditions: dose 15 g a.i./ha, fresh weight control rate level. The method, boiled down: as §1
For the next experiment, the system named is Amaranthus retroflexus. The experiment is described as above. As to conditions: dose 15 g a.i./ha, fresh weight control rate level. The method in brief: as §1
In another experiment the test system is Galium aparine. The description is as above. The note with it: dose 15 g a.i./ha, fresh weight control rate level. The method, boiled down:
as §1

Another experiment relates to Setaria viridis. Described as above. As to conditions: dose 15 g a.i./ha, fresh weight control rate level. The method in brief: as §1
For a further experiment, the system named is Veronica didyma Tenore. Described as above. The note with it: dose 15 g a.i./ha, fresh weight control rate level. The method, boiled down:
as §1

The subject of a further experiment is Digitaria sanguinalis. The description is as above. As to conditions: dose 15 g a.i./ha, fresh weight control rate level. The method, boiled down: as §1
For experiment [1], the system named is Echinochloa crusgalli, Scirpus juncoides, Bidens tripartita L. and Sagittaria trifolia. In words: Weed control effect evaluation in rice field. As to conditions: weeds collected from Heilongjiang Province of China. How it is done:
Transplanted rice safety evaluation and weed control effect evaluation in rice field:
Rice field soil was loaded into a 1/1,000,000 ha pot. The seeds of Echinochloa crusgalli, Scirpus juncoides, and Bidens tripartita L. were sowed and gently covered with soil, then left to stand still in greenhouse in the state of 0.5-1 cm of water storage. The tuber of Sagittaria trifolia was planted in the next day or 2 days later. It was kept at 3-4 cm of water storage thereafter. The weeds were treated by dripping the WP or SC water diluents prepared according to the common preparation method of the compounds of the present invention with pipette homogeneously to achieve specified effective amount when Echinochloa crusgalli, Scirpus juncoides, and Bidens tripartita L. reached 0.5 leaf stage and Sagittaria trifolia reached the time point of primary leaf stage.
The fertility condition of Echinochloa crusgalli, Scirpus juncoides, Bidens tripartita L. and Sagittaria trifolia 14 days after the treatment of the compound of the invention and the fertility condition of rice 21 days after the treatment of the compound of the invention respectively with the naked eye. Evaluate the weed control effect with the above activity standard level. Many compounds show excellent activity and selectivity. […]

We go through six molecules from patent US20230072860A1, “ISOXAZOLINE OXIME FORMATE COMPOUND, PREPARATION METHOD THEREFOR, HERBICIDAL COMPOSITION AND USE THEREOF” (QINGDAO KINGAGROOT CHEMICAL COMPOUND CO., LTD., priority 2020, published 2023).

In the case of `Cn1c(=S)n(C)c(=O)n(-c2cc(C3=NOC(C)(C(=O)ON=C4CCCC4)C3)c(Cl)cc2F)c1=O` (stereo not shown) [Compound 146], the “weeding effect in post-emergence stage, Leptochloa chinensis (level)” value (“weeding effect … Leptochloa chinensis (level)” below) in the experiment on Leptochloa chinensis is 5 (Level 5: growth control rate is above 85%). Moreover, in the experiment on Abutilon theophrasti, the “weeding effect in post-emergence stage, Abutilon theophrasti (level)” value (shortened to “weeding effect … Abutilon theophrasti (level)”) is 5 (Level 5: growth control rate is above 85%). For the same molecule, the “weeding effect in post-emergence stage, Echinochloa crusgalli (level)” value (“weeding effect … Echinochloa crusgalli (level)” for short) with Echinochloa crusgalli is on record as 5 (Level 5: growth control rate is above 85%). Besides, the “weeding effect in post-emergence stage, Eleusine indica (level)” value (“weeding effect … Eleusine indica (level)” for short) in the experiment on Eleusine indica is recorded as 5 (Level 5: growth control rate is above 85%). Also, the “weeding effect in post-emergence stage, Amaranthus retroflexus (level)” value (shortened to “weeding effect … Amaranthus retroflexus (level)”) in the experiment with Amaranthus retroflexus was 5 (Level 5: growth control rate is above 85%). Besides, the “weeding effect in post-emergence stage, Galium aparine (level)” value (shortened to “weeding effect … Galium aparine (level)”) in the experiment with Galium aparine is 5 (Level 5: growth control rate is above 85%). Besides, the “weeding effect in post-emergence stage, Setaria viridis (level)” value (shortened to “weeding effect … Setaria viridis (level)”) in the experiment on Setaria viridis is recorded as 5 (Level 5: growth control rate is above 85%). Further, in the experiment with Veronica didyma Tenore, the “weeding effect in post-emergence stage, Veronica didyma Tenore (level)” value (“weeding effect … Veronica didyma Tenore (level)” below) was 5 (Level 5: growth control rate is above 85%). Also, the “weeding effect in post-emergence stage, Digitaria sanguinalis (level)” value (“weeding effect … Digitaria sanguinalis (level)” for short) in the experiment on Digitaria sanguinalis is recorded as 5 (Level 5: growth control rate is above 85%).

For `CC(C)=NOC(=O)C1(C)CC(c2cc(-n3c(=O)cc(C(F)(F)F)n(C)c3=O)c(F)cc2Cl)=NO1` (stereo not shown) [Compound 160], the “weeding effect … Leptochloa chinensis (level)” value in the experiment on Leptochloa chinensis is on record as 5 (Level 5: growth control rate is above 85%). Moreover, in the experiment on Abutilon theophrasti, the “weeding effect … Abutilon theophrasti (level)” value is 5 (Level 5: growth control rate is above 85%). For the same molecule, in the experiment with Echinochloa crusgalli, the “weeding effect … Echinochloa crusgalli (level)” value is 5 (Level 5: growth control rate is above 85%). In addition, the “weeding effect … Eleusine indica (level)” value in the experiment on Eleusine indica was 5 (Level 5: growth control rate is above 85%). For the same molecule, the “weeding effect … Amaranthus retroflexus (level)” value with Amaranthus retroflexus is on record as 5 (Level 5: growth control rate is above 85%). Also, the “weeding effect … Galium aparine (level)” value with Galium aparine is given as 5 (Level 5: growth control rate is above 85%). For the same molecule, in the experiment with Setaria viridis, the “weeding effect … Setaria viridis (level)” value is 5 (Level 5: growth control rate is above 85%). The “weeding effect … Veronica didyma Tenore (level)” value with Veronica didyma Tenore is given as 5 (Level 5: growth control rate is above 85%). For the same molecule, in the experiment on Digitaria sanguinalis, the “weeding effect … Digitaria sanguinalis (level)” value was 5 (Level 5: growth control rate is above 85%).

For the molecule `CC(C)=NOC(=O)C1(C)CC(c2nc(-n3c(=O)cc(C(F)(F)F)n(C)c3=O)c(F)cc2Cl)=NO1` (stereo not shown) [Compound 170], the “weeding effect … Leptochloa chinensis (level)” value with Leptochloa chinensis is 5 (Level 5: growth control rate is above 85%). For the same molecule, in the experiment with Abutilon theophrasti, the “weeding effect … Abutilon theophrasti (level)” value is given as 5 (Level 5: growth control rate is above 85%). Moreover, the “weeding effect … Echinochloa crusgalli (level)” value in the experiment with Echinochloa crusgalli is on record as 5 (Level 5: growth control rate is above 85%). The “weeding effect … Eleusine indica (level)” value in the experiment with Eleusine indica was 5 (Level 5: growth control rate is above 85%). The “weeding effect … Amaranthus retroflexus (level)” value in the experiment with Amaranthus retroflexus is 5 (Level 5: growth control rate is above 85%). Moreover, the “weeding effect … Galium aparine (level)” value with Galium aparine was 5 (Level 5: growth control rate is above 85%). Moreover, the “weeding effect … Setaria viridis (level)” value with Setaria viridis is recorded as 5 (Level 5: growth control rate is above 85%). Also, the “weeding effect … Veronica didyma Tenore (level)” value in the experiment with Veronica didyma Tenore was 5 (Level 5: growth control rate is above 85%). Besides, the “weeding effect … Digitaria sanguinalis (level)” value with Digitaria sanguinalis is 5 (Level 5: growth control rate is above 85%).

As for `CC(C)=NOC(=O)C1(C)CC(c2cc(-n3c(=S)cc(C(F)(F)F)n(C)c3=O)c(F)cc2Cl)=NO1` (stereo not shown) [Compound 197], the “weeding effect … Leptochloa chinensis (level)” value with Leptochloa chinensis is listed as 5 (Level 5: growth control rate is above 85%). Also, in the experiment on Abutilon theophrasti, the “weeding effect … Abutilon theophrasti (level)” value is 5 (Level 5: growth control rate is above 85%). Moreover, in the experiment on Echinochloa crusgalli, the “weeding effect … Echinochloa crusgalli (level)” value is reported as 5 (Level 5: growth control rate is above 85%). Further, the “weeding effect … Eleusine indica (level)” value with Eleusine indica is recorded as 5 (Level 5: growth control rate is above 85%). The “weeding effect … Amaranthus retroflexus (level)” value in the experiment with Amaranthus retroflexus is listed as 5 (Level 5: growth control rate is above 85%). Further, in the experiment with Galium aparine, the “weeding effect … Galium aparine (level)” value was 5 (Level 5: growth control rate is above 85%). Further, in the experiment with Setaria viridis, the “weeding effect … Setaria viridis (level)” value is listed as 5 (Level 5: growth control rate is above 85%). Moreover, the “weeding effect … Veronica didyma Tenore (level)” value in the experiment with Veronica didyma Tenore was 5 (Level 5: growth control rate is above 85%). In addition, the “weeding effect … Digitaria sanguinalis (level)” value in the experiment with Digitaria sanguinalis was 5 (Level 5: growth control rate is above 85%).

Consider `CC(C)=NOC(=O)C1(C)CC(c2cc(-n3c(=O)cc(C(F)(F)F)n(C)c3=S)c(F)cc2Cl)=NO1` (stereo not shown) [Compound 218], for which, in the experiment on Leptochloa chinensis, the “weeding effect … Leptochloa chinensis (level)” value is recorded as 5 (Level 5: growth control rate is above 85%). Moreover, the “weeding effect … Abutilon theophrasti (level)” value in the experiment with Abutilon theophrasti is 5 (Level 5: growth control rate is above 85%). Further, the “weeding effect … Echinochloa crusgalli (level)” value in the experiment with Echinochloa crusgalli is 5 (Level 5: growth control rate is above 85%). For the same molecule, in the experiment on Eleusine indica, the “weeding effect … Eleusine indica (level)” value is 5 (Level 5: growth control rate is above 85%). Moreover, the “weeding effect … Amaranthus retroflexus (level)” value in the experiment with Amaranthus retroflexus was 5 (Level 5: growth control rate is above 85%). In the experiment on Galium aparine, the “weeding effect … Galium aparine (level)” value is 5 (Level 5: growth control rate is above 85%). In addition, the “weeding effect … Setaria viridis (level)” value in the experiment on Setaria viridis is listed as 5 (Level 5: growth control rate is above 85%). In addition, the “weeding effect … Veronica didyma Tenore (level)” value in the experiment on Veronica didyma Tenore is 5 (Level 5: growth control rate is above 85%). The “weeding effect … Digitaria sanguinalis (level)” value with Digitaria sanguinalis was 5 (Level 5: growth control rate is above 85%).

With `CCOC(=O)c1cnn(C)c1S(=O)(=O)NC(=O)Nc1nc(OC)cc(OC)n1` [Pyrazosulfuron-ethyl], the “response of the test weeds to common doses” value in [1] is “resistant”.
